The record followed here is US12162888B2, “Carboxamides as ubiquitin-specific protease inhibitors” (Valo Early Discovery, Inc., priority 2018, dated 2024).

Experiment [1] relates to human eosinophil EOL-1 (DSMZ no. ACC 386) cells. Description: In Vivo Xenograft Studies, Example A-2. The conditions noted are these: EOL-1 cells subcutaneous in flank of mice; first test compound 50-120 mg/kg orally or subcutaneously, second test compound 40 or 60 mg/kg orally twice per day; versus vehicle (FIG. 2). As to the method:
Example A-2: In Vivo Xenograft Studies
Mice were injected subcutaneously in the flank with human eosinophil EOL-1 (DSMZ no. ACC 386) cells (NCI). Injections with cells (circles, FIG. 2A) and with vehicle alone (triangles, FIG. 2B) were monitored, and when tumors reached a critical size (for example, about 1000 mm^3), mice were randomized into treatment groups, including vehicle control and reference standard groups. The groups, as shown in FIG. 2B are as follows: Group 1, vehicle administered orally every other day; Group 2, first test compound ((S)-amino-N-(5-fluoro-7-(piperazin-1-yl)chroman-3-yl)-6-methylthieno[2,3-b]pyridine-2-carboxamide) at 120 mg/kg, administered orally every other day; Group 3, first test compound at 80 mg/kg, administered orally every other day; Group 4, first test compound at 80 mg/kg, administered subcutaneously twice per day, every other day thereafter; Group 5, first test compound at 60 mg/kg, administered subcutaneously twice per day for four consecutive days, with no administration for three days. […] The mice were weighed and tumors measured using vernier calipers on indicated days. Tumor volume was calculated according to the formula (length×width^2)/2.

Experiment [2] deals with T1, USP28 (USP28-5(1-1077)-TEV-6*His; LifeSensors) (Homo sapiens, UniProt Q96RU2).
T1 construct: construct USP28 (USP28-5(1-1077)-TEV-6*His; LifeSensors); TEV cleavage site (C); 6xHis (C); purchased LifeSensors
T1 sequence (Q96RU2 1-1077): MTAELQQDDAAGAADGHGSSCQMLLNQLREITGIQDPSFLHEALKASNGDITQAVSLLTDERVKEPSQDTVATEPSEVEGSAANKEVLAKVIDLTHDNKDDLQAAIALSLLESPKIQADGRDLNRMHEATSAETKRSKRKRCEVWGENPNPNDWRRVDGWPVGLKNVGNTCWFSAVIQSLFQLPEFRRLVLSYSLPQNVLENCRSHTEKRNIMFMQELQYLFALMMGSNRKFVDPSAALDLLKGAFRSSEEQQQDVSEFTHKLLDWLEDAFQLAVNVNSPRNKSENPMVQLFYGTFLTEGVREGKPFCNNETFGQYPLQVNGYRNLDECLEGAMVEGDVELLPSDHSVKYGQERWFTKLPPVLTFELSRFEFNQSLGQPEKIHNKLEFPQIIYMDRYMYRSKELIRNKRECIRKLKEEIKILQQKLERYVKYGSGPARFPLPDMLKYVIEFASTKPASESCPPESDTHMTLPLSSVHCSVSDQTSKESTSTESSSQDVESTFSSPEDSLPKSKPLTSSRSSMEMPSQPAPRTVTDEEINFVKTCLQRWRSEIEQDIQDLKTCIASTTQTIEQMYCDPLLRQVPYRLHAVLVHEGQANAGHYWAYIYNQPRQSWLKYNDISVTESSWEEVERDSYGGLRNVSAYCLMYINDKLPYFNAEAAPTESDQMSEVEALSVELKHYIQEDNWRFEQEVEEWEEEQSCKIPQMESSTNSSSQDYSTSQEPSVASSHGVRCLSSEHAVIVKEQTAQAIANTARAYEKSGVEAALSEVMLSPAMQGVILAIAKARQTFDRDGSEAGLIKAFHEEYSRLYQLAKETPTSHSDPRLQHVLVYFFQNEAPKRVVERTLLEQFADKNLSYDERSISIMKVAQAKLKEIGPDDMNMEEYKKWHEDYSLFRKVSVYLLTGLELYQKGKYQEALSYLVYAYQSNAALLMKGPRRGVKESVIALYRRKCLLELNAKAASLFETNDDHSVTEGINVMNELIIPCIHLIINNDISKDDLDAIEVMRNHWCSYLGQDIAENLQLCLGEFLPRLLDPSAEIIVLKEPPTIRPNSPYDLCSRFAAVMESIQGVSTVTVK
The experiment is described as follows: Ubiquitin-Rhodamine 110 Assay for USP28 Activity, Example A-1(b). In kind it is biochemical. As to the method: Example A-1(b): Biochemical Assay: Ubiquitin-Rhodamine 110 Assay for USP28 Activity
Each assay was performed in a final volume of 20 μL in assay buffer containing 20 mM Tris-HCl (pH 8.0, (1M Tris-HCl, pH 8.0 solution; Corning 46-031-CM)), 2 mM CaCl2 (1M Calcium Chloride solution; Sigma #21114) 2 mM BME (2-Mercaptoethanol; Sigma 63689-25ML-F), 0.01% Prionex (0.22 μM filtered, Sigma #G-0411), and 0.01% Triton X-100. Stock compound solutions were stored at −20° C. as 10 mM in DMSO. Up to 1 month prior to the assay, 2 mM test compounds were pre-dispensed into assay plates (Black, low volume; Corning #3820) and frozen at −20° C. Prestamped assay plates were allowed to come to room temperature on the day of the assay. For the screen, 100 nL of 2 mM was pre-dispensed for a final screening concentration of 10 μM (DMSO(fc)=0.5%). […] Plates were incubated stacked for 90 minutes at room temperature before fluorescence was read on the Envision (Excitation at 485 nm and Emission at 535 nm; Perkin Elmer) or on the PheraSTAR (Excitation at 485 nm and Emission at 535 nm; BMG Labtech).
For follow-up studies, each assay was performed in a final volume of 15 μL in assay buffer containing 20 mM Tris-HCl (pH 8.0, (1M Tris-HCl, pH 8.0 solution; Corning 46-031-CM)), 3 mM BME (2-Mercaptoethanol; Sigma 63689-25ML-F), 0.03% BGG (0.22 μM filtered, Sigma, G7516-25G), and 0.01% Triton X-100 (Sigma, T9284-10L). Nanoliter quantities of either an 8-point or 10-point, 3-fold serial dilution in DMSO was pre-dispensed into assay plates (Perkin Elmer, ProxiPlate-384 F Plus, #) for a final test concentration of either 25 μM to 11 nM or 25 μM to 1.3 nM, respectively. Enzyme USP28, construct USP28 (USP28-5(1-1077)-TEV-6*His; LifeSensors) concentration and incubation times were optimized for the maximal signal-to-background while maintaining initial velocity conditions at a fixed substrate concentration. The final concentration of the enzyme in the assay was […]. Final substrate (Ub-Rh110; Ubiquitin-Rhodamine 110, R&D Systems #U-555) concentration was 25 nM with [Ub-Rh110]<<Km. 5 μL of 2× enzyme was added to assay plates (pre-stamped with compound) preincubated with USP28 for 30 minutes and then 5 μL of 2× Ub-Rh110 was added to assay plates. Plates were incubated stacked for 20 minutes at room temperature before 5 μL of stop solution was added (final concentration of 10 mM citric acid (Sigma, 251275-500G)). Fluorescence was read on the Envision (Excitation at 485 nm and Emission at 535 nm; Perkin Elmer) or on the PheraSTAR (Excitation at 485 nm and Emission at 535 nm; BMG Labtech).
For assay formats Example A-1(a), A-1(b), and A-2, data were reported as percent inhibition compared with control wells based on the following equation: % inh=1−((FLU−AveLow)/(AveHigh−AveLow)) where FLU=measured Fluorescence, AveLow=average Fluorescence of no enzyme control (n=16), and AveHighh=average Fluorescence of DMSO control (n=16). IC50 values were determined by curve fitting of the standard 4 parameter logistic fitting algorithm included in the Activity Base software package: IDBS XE Designer Model 205. Data is fitted using the Levenburg Marquardt algorithm.

A short description of experiment [3]: Ubiquitin-Rhodamine 110 Assay for USP25 Activity, Example A-3. As to conditions: Ubiquitin-Rhodamine 110 biochemical assay, Example A-1(b); read-out: USP28 A-1(b) IC50 range. Format: biochemical. Put shortly:
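USP25-His6 ([…] final as stated) preincubated 30 min with compound (10-point, 25 μM to 1.3 nM), then Ub-Rh110 at 25 nM (<<Km) added in pH 8.0 Tris buffer with BME, BGG and Triton X-100. Reaction stopped after 45 min at room temperature with 10 mM citric acid; fluorescence read at 485/535 nm.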

Experiment [4] addresses T2, USP28 (His-tagged USP28-FL-mammalian) (Homo sapiens, UniProt Q96RU2).
T2 construct: Expression of USP28 (1-1077)-TEV-6*His (pTT5 vector) was carried out in Expi293f cells; made in house; host or cells: Expi293F cells (pTT5 vector)
T2 sequence (Q96RU2 1-1077): T1 sequence (Q96RU2 1-1077)
The experiment is described as follows: Ubiquitin-Rhodamine 110 Assay for USP28 Activity, Example A-1(a). The conditions noted are these: Ubiquitin-Rhodamine 110 biochemical assay, read-out: USP28 A-1(a) IC50 range. In kind it is biochemical. The method in brief:
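IC50s were fitted with a 4-parameter logistic to percent inhibition relative to no-enzyme and DMSO controls, using Rhodamine 110 fluorescence (485/535 nm) released from 25 nM Ub-Rh110. The enzyme was Expi293F-expressed USP28-FL-His at […], preincubated 30 min with compound (10-point, 25 μM top) in Tris pH 8.0 buffer containing BGG and Triton X-100. Substrate turnover ran 45 min at room temperature and was stopped with 10 mM citric acid.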

Some results are limits rather than exact numbers.

As to `Cc1ccc2c(N)c(C(=O)N[C@@H]3COc4cc(N5CCNCC5)cc(F)c4C3)sc2n1` [first test compound, (S)-amino-N-(5-fluoro-7-(piperazin-1-yl)chroman-3-yl)-6-methylthieno[2,3-b]pyridine-2-carboxamide], the “tumor growth (tumor volume, (length×width^2)/2)” value in experiment [1] is “slowing of tumor growth over time”.
As to `Cc1ccc2c(N)c(C(=O)N[C@H]3COc4cc(N5C[C@@H]6CNC[C@H]6C5)ccc4C3)sc2n1` [Example 43, 3-amino-N-((R)-7-((3aR,6aR)-hexahydropyrrolo[3,4-c]pyrrol-2(1H)-yi)chroman-3-yl)-6-methylthieno[2,3-b]pyridine-2-carboxamide], the “USP28 A-1(b) IC50 range” value in experiment [2] was “+ (“+”L>2 μM)”.
Turning to `CCn1ccc2cc(C(=O)N[C@@H]3CCc4cc(N5CC6CCC(C5)N6)ccc4C3)nnc21` (single isomer, unassigned) [Example 11-23], the “USP28 A-1(b) IC50 range” value in experiment [2] is listed as “+ (“+”L>2 μM)”.
As usually defined, the IC50 is the concentration that gives 50% inhibition. Regarding `CCN[C@H]1CN(c2ccc3c(n2)CC[C@H](NC(=O)c2sc4nc(C)ccc4c2N)C3)C[C@@H]1COC` [Example 476, 3-amino-N-[(6S)-2-[(3R,4S)-3-(ethylamino)-4-(methoxymethyl)pyrrolidin-1-yl]-5,6,7,8-tetrahydroquinolin-6-yl]-6-methylthieno[2,3-b]pyridine-2-carboxamide], the values for the concentration for half-maximal inhibition (IC50) in experiment [3] and in experiment [4] were > 2000 nM and 50 to 200 nM, respectively.
In the case of `CCn1ccc2cc(C(=O)N[C@H]3CCc4cc(N5CC6CCC(C5)N6)ccc4C3)nnc21` (single isomer, unassigned) [Example 11-24], the “USP28 A-1(b) IC50 range” value in experiment [2] was “+ (“+”L>2 μM)”.
Turning to `Cc1ccc2c(N)c(C(=O)N[C@H]3CCc4nc(N5CC[C@H](N)[C@H]5C(F)F)ccc4C3)sc2n1` [Example 479, 3-amino-N-[(6S)-2-[(2S,3S)-3-amino-2-(difluoromethyl)pyrrolidin-1-yl]-5,6,7,8-tetrahydroquinolin-6-yl]-6-methylthieno[2,3-b]pyridine-2-carboxamide], the IC50 was 50 to 200 nM in experiment [3] and 1 to 50 nM in experiment [4].
Taken in the same sequence, the figures for `Cc1nc2sc(C(=O)N[C@H]3CCc4nc(N5C[C@@H](CF)[C@H](N)C5)ccc4C3)c(N)c2cc1F` [Example 507, 3-amino-N-[(6S)-2-[(3S,4R)-3-amino-4-(fluoromethyl)pyrrolidin-1-yl]-5,6,7,8-tetrahydroquinolin-6-yl]-5-fluoro-6-methylthieno[2,3-b]pyridine-2-carboxamide] were 200 to 2000 nM and 50 to 200 nM.
For the molecule `CCN[C@@H]1CN(c2ccc3c(n2)CC[C@H](NC(=O)c2sc4nc(C)ccc4c2N)C3)C[C@H]1COC` [Example 477, 3-amino-N-[(6S)-2-[(3S,4R)-3-(ethylamino)-4-(methoxymethyl)pyrrolidin-1-yl]-5,6,7,8-tetrahydroquinolin-6-yl]-6-methylthieno[2,3-b]pyridine-2-carboxamide], the figures for the concentration for half-maximal inhibition (IC50) in experiment [3] and in experiment [4] were > 2000 nM and 50 to 200 nM, respectively.
The like results for `Cc1ccc2c(N)c(C(=O)N[C@H]3CCc4nc(N5CC[C@@H](N)[C@@H]5C(F)F)ccc4C3)sc2n1` [Example 478, 3-amino-N-[(6S)-2-[(2R,3R)-3-amino-2-(difluoromethyl)pyrrolidin-1-yl]-5,6,7,8-tetrahydroquinolin-6-yl]-6-methylthieno[2,3-b]pyridine-2-carboxamide] were, in that order, > 2000 nM and 50 to 200 nM.
